Measured values taken from a melting point compilation (Tetko et al.; mined from patent text by program, amines drawn as free bases though some values may be those of a salt).
Non-standard residues stand in square brackets, D forms with d. Residues, ends and D or L forms follow the SMILES beside them. pGlu = O=C1CC[C@@H](C(=O)O)N1

Compared with `CCOC(=O)C1=C(C)NC(C)=C(C(=O)OCCN2CCN(C(c3ccccc3)c3ccccc3)CC2)C1c1ccccc1Cl` (configuration not stated), `CC(C)c1cccc(C(C)C)c1NC(=O)N(Cc1ccccc1)CC(c1ccccc1)c1ccccc1` is higher in melting point: 76 to 78 °C for the first, 153 to 155 °C for the second.

First: COc1cc(COc2nn(-c3ccccc3)cc2C(N)=O)ccc1OCc1nc(-c2ccccc2)oc1C
Second: COc1cc(COc2nn(-c3ccccc3)cc2CC(=O)O)ccc1OCc1nc(-c2ccccc2)oc1C
The melting point of the first is higher: 190 to 191 °C for the first, 147 to 148 °C for the second.

First: Cc1[nH]c2cccc(NC(=O)NCc3ccc(Br)cc3)c2c1C
Second: COC(=O)c1ccc2ncc(C(=S)NCc3ccc(Cl)cc3)c(O)c2c1
The melting point of the first is lower: 190 °C for the first, 259 to 261 °C for the second.

Compared with `Cc1nnc2sc3cc(Cl)ccc3n12`, `CC#CCOc1cc(Oc2ccc(Cl)cc2F)ncn1` is lower in melting point: 186 to 188 °C for the first, 118 °C for the second.

First: CC(C)(SCC(=O)O)C(NS(=O)(=O)c1ccc(Oc2ccc(F)cc2)cc1)C(=O)O (configuration not stated)
Second: CC(C)(C)c1cc2oc(-c3ccc(S(N)(=O)=O)cc3)c(-c3ccc(F)cc3)n2n1
The melting point of the first is lower: 69 °C for the first, 196 to 200 °C for the second.

First: CN(CC(=O)O)C(=O)Nc1ccc(Cl)c(Cl)c1
Second: COc1ccc2c(=O)c(NC(=O)C(=O)O)coc2c1
The melting point of the first is lower: 103 to 105 °C for the first, 236 to 238 °C for the second.

Compared with `CCCC(c1ccc(C#N)cc1)n1ccnc1` (configuration not stated), `Cc1ccc(S(=O)(=O)Nc2ccc(SC#N)cc2)cc1` is higher in melting point: 63 to 71 °C for the first, 122 to 124 °C for the second.

Compared with `O=C(c1ccccc1)N1CCc2[nH]c3cccc(CCCO)c3c2CC1`, `CC1CCCCN1C(=O)c1nc(-c2ccccc2)nc2ccccc12` (configuration not stated) is higher in melting point: 144 to 147 °C for the first, 150 °C for the second.

First: CC(C)NCC(O)COc1ccc2c(=O)cc(-c3ccc(OCc4ccccc4)c(OCc4ccccc4)c3)oc2c1 (configuration not stated)
Second: O=C1N(N(c2ccccc2)c2ccccc2)c2ccccc2C1(Cc1ccnc(F)c1)Cc1ccnc(F)c1
The melting point of the first is lower: 177 to 179 °C for the first, 179 to 180 °C for the second.

Compared with `Cn1nnnc1SCC(CS(=O)(=O)c1ccc(-c2ccc(Cl)cc2)cc1)C(=O)O` (configuration not stated), `CC(C)(C)c1ccc(S(=O)(=O)n2c(CCC(=O)O)cc3cc(Cl)ccc32)cc1` is higher in melting point: 98 to 100 °C for the first, 169 to 171 °C for the second.

Compared with `FC(F)(F)CSc1nc2ccccc2[nH]1`, `Cc1c(OCC(F)(F)F)ccnc1CSc1nc2cc(CO)ccc2[nH]1` is higher in melting point: 148 to 150 °C for the first, 153 to 155 °C for the second.

First: CCOC(=O)C1CCCN(C(=O)CCn2cnc3c(=O)[nH]cnc32)C1 (configuration not stated)
Second: CC(CCC(=O)O)C(=O)N1c2ccccc2CCC1C(=O)O (configuration not stated)
The melting point of the first is higher: 171 to 175 °C for the first, 117 to 119 °C for the second.

First: O=C(O)COc1nn(Cc2ccccc2)cc1-c1ccccc1
Second: CC(C)n1nc(-c2c(OCC(=O)O)nc(N)nc2-c2ccccc2)ccc1=O
The melting point of the first is lower: 132 to 133 °C for the first, 215 to 217 °C for the second.

First: CC(C)CCCC(C)C1CCC2C3C(=O)C=C4CC(O)CCC4(C)C3CCC12C (configuration not stated)
Second: CCOC(=O)C1(C(=O)OCC)CCC2(NCCc3cc(OC)c(OC)cc32)C(C2c3cc(OC)c(OC)cc3CCN2C(C)=O)C1 (configuration not stated)
The melting point of the first is higher: 169 to 170 °C for the first, 146 to 149 °C for the second.

Compared with `COc1cc(OC)c(CNCCc2ccc(O)cc2)cc1O`, `Cc1cc(Cl)cc(Cl)c1OC(=O)c1ccc(CCl)cc1` is lower in melting point: 170 to 173 °C for the first, 74 to 75 °C for the second.

Compared with `CCCc1cccc(N2CC(=O)NC(=O)N2)c1`, `CCNC(=O)Cc1cccc([N+](=O)[O-])c1` is lower in melting point: 188 to 190 °C for the first, 115 to 117 °C for the second.

Compared with `Cc1ccnc2c1C(=O)CC(c1ccsc1)C2` (configuration not stated), `CN1CCC(c2c[nH]c3ccc(C(=O)c4ccccn4)cc23)CC1` is lower in melting point: 92 to 93 °C for the first, 90 °C for the second.

Compared with `O=C1NC(=O)C(c2c[nH]c3ccccc23)N1` (configuration not stated), `O=C1c2ccccc2C(=O)N1Cc1cc2ccccc2[nH]1` is lower in melting point: 229 to 230 °C for the first, 215 to 220 °C for the second.

First: CCOC(=O)C(Cl)=Cc1cc(-n2ncc(C(F)(F)F)cc2=O)ccc1Cl
Second: CCCCOc1ncc(C(=O)N[C@@H]2CCCC[C@H]2O)cc1-c1cc(C(F)(F)F)ccc1F
The melting point of the first is lower: 98 to 100 °C for the first, 172 to 178 °C for the second.

Compared with `CCCCN(CCCC)c1ccc2nc3c4ccccc4c(=Nc4ccncc4)cc-3oc2c1`, `CC(=O)c1cc(F)ccc1Oc1nc2ccc(N=[N+]=[N-])cc2cc1Cc1ccccc1` is lower in melting point: 188 to 189 °C for the first, 127 to 130 °C for the second.

First: COc1cccc(N(CC(=O)OC(C)(C)C)C(=O)CCl)c1
Second: CCN(CC)C(=O)CCCN(C(=O)Nc1cc(OC)cc(C(C)(C)C)c1O)c1ccccc1
The melting point of the first is lower: 110 °C for the first, 131 to 133 °C for the second.

First: CC(=O)N(C)c1cccc2c1nc(-c1c(F)cccc1F)n2Cc1c(F)cccc1F
Second: CCc1ccc(Nc2nc3cc(NC(=O)c4cc(F)cc(C(F)(F)F)c4)ccc3o2)cc1
The melting point of the first is lower: 155 to 156 °C for the first, greater than 250 °C for the second.

Compared with `COC(=O)Cc1ccccc1CSc1nc2cc(C(F)(F)F)ccc2s1`, `CC(C)(CO)NS(=O)(=O)c1cc(NC(=O)c2cnn3c(C(F)(F)F)cc(-c4ccc(C(F)(F)F)cc4)nc23)c(Cl)s1` is higher in melting point: 97 to 99 °C for the first, 223 °C for the second.

First: O=C(NCCCN1CCOCC1)Nc1nc2ccc(OCc3c(Cl)cccc3Cl)cc2s1
Second: O=C(O)c1csc(Oc2cccc(Cl)c2)n1
The melting point of the first is higher: 162 to 166 °C for the first, 135 to 137 °C for the second.

Compared with `CN(C)c1ccc(-c2ccnc3c(C(=O)c4cccs4)cnn23)cc1NC(=O)c1ccccc1Cl`, `CC(C)(CO)NS(=O)(=O)c1ccc(Cl)c(NC(=O)c2cnn3c(C(F)F)cc(-c4ccc(C(F)(F)F)cc4)nc23)c1` is higher in melting point: 220 to 222 °C for the first, 234 °C for the second.

First: CC(C)(C)C(NC(=O)c1ccc(Cl)cc1)NC(=C[N+](=O)[O-])Nc1cccnc1 (configuration not stated)
Second: CCOP(=O)(Cc1ccc(NC(=O)CCc2conc2-c2ccc(Cl)cc2)cc1)OCC
The melting point of the first is higher: 195 to 196 °C for the first, 88 to 90 °C for the second.

Compared with `CC(C)(O)[C@H](CO)NC(=O)[C@@H](CC(=O)O)n1ccc(-c2ccc(-c3ccccc3)cc2)c1`, `CC(C)Cn1c(CNC(=O)OC(C)(C)C)c(-c2ccccc2)c2cc(C(N)=S)ccc2c1=O` is higher in melting point: 150 to 152 °C for the first, 228 to 229 °C for the second.

First: C=C(CC1(C)C(=O)CCC1=O)C1=CCCc2cc(OC)ccc21
Second: CCn1c(=O)ccc2cnc(Nc3ccc(OC)cc3)nc21
The melting point of the first is lower: 81 to 82 °C for the first, 196 to 197 °C for the second.

First: COc1cc(C(=O)O)c2oc(-c3ccccc3)cc2c1
Second: COc1cc(OC)c(-c2cccs2)cc1/C=C/C(=O)c1ccccc1C(=O)O
The melting point of the first is lower: 185 to 187 °C for the first, 196 to 198 °C for the second.

First: C[C@@H](NC(=O)c1c[nH]c2ncc(-c3nn(C)c4ccsc34)nc12)C(=O)N1CC(C#N)C1
Second: CCN(C(=O)C1CC1)c1cccc(-c2ccc3nnc(C)n3n2)c1
The melting point of the first is higher: 310 to 320 °C for the first, 149 to 151 °C for the second.

First: Cc1cc2nc3c4cc([N+](=O)[O-])ccc4n(CCN(C)C)c3nc2cc1C
Second: CN1CCN(c2cc3c(cc2F)C(=O)c2nc4ccccc4c(=O)n2-3)CC1
The melting point of the first is lower: 219 °C for the first, 257 to 258 °C for the second.

First: Cc1nc(C)c(C(C)(O)c2ccoc2)o1 (configuration not stated)
Second: CC(C)c1nc2cc(N)ccn2n1
The melting point of the first is lower: 93 to 95 °C for the first, 174 to 176 °C for the second.

First: COC(=O)c1nc(Cl)c(F)c(N)c1I
Second: COC(=O)CCC#Cc1cc(F)c(Cl)cc1N
The melting point of the first is higher: 149 to 151 °C for the first, 67 to 68 °C for the second.

First: C/C(=C\c1cc(F)cc(F)c1)C(=O)O
Second: CC(C)COc1cc(N(C)C)ccc1C(=O)c1ccccc1C(=O)O
The melting point of the first is lower: 148 °C for the first, 199 to 201 °C for the second.

First: Cc1nn(C)c2c(Cl)nc(C3CC3)nc12
Second: CCC(CC)n1cc(Br)nc(N2CCc3cc(OC)cc(C)c32)c1=O
The melting point of the first is lower: 87 to 90 °C for the first, 152 to 154 °C for the second.

Going from `Clc1ccc(Cl)c(CN2CCNc3ncc(I)cc32)c1` to `N#Cc1ccc(N2CCN(Cc3cnc4c(c3)NC(=O)[C@@H]3CCCN43)CC2)c(F)c1`, the melting point rises from 169 °C to 226 °C.

Compared with `Oc1c(C(O)C(F)(F)F)cnc2c(-c3cc(-c4ccccc4)cs3)cnn12` (configuration not stated), `O=c1nc2n(cc1-c1ccccc1)CCC2` is lower in melting point: 265 to 290 °C for the first, 200 to 202 °C for the second.

Compared with `CC1CN(N=Cc2cccnc2)C(=O)NN1` (configuration not stated), `NC(=O)c1ccc(C2CCCc3cncn32)cc1` (configuration not stated) is lower in melting point: 235 to 237 °C for the first, 181 to 183 °C for the second.

First: CC(C)(C)OC(=O)C(C)(C)ON=C1C=CC=CC1CC(=O)O (configuration not stated)
Second: CC(=O)SCCS(=O)(=O)N1CCC[C@H]1C(=O)OC(C)(C)C
The melting point of the first is higher: 102 to 105 °C for the first, 46 to 50 °C for the second.

First: CS(=O)(=O)OCc1cc(-c2ccc3c(c2)CCO3)nn(Cc2ccc(Cl)cc2)c1=O
Second: CN(Cc1ccc(NC(=O)C2=Cc3cc(-c4ccc5c(c4)OCCCO5)ccc3S(=O)(=O)CC2)cc1)C1CCOCC1
The melting point of the first is lower: 69 to 70 °C for the first, 242 to 245 °C for the second.

First: Cc1ccc(S(=O)(=O)NC2(c3ccccc3)C3=NCC(C)(C)CN3c3ccccc32)cc1 (configuration not stated)
Second: CCc1cc2ccccn2c1C(=O)c1ccc(OS(=O)(=O)c2ccc(C)cc2)cc1
The melting point of the first is higher: 224 to 226 °C for the first, 165 °C for the second.

First: CCCCS(=O)C1CC(=O)N1CC(=O)CCc1ccccc1 (configuration not stated)
Second: CCCc1c(C(=O)C(C)C)c2ccc(C(=O)O)cc2n1Cc1ccccc1C
The melting point of the first is lower: 145 to 146 °C for the first, 186 to 188 °C for the second.

First: O=C(O)CCCC(=O)N1C2CCC(C2)C1C(=O)O (configuration not stated)
Second: COC(=O)[C@H](CS)NC(=O)[C@@H]1CCC(=O)N1 ([pGlu]-Cys-OMe)
The melting point of the first is higher: 155 to 159 °C for the first, 114 to 116 °C for the second.

Compared with `CCN1NC=C2C1=NC=CC2(ON=C(C)C)C(O)c1ccccn1` (configuration not stated), `CCOC(=O)N1CCC(=C2c3ccccc3CCn3c(CO)cnc32)CC1` is higher in melting point: 131 to 133 °C for the first, 192 °C for the second.

First: CC1CCN(c2cc(F)cc(C(=O)Nc3ccc(Oc4ccnc(NC5CCCC5)n4)c4ccccc34)c2)CC1
Second: Cc1c(C(=O)Nc2ccc(N3CCC(c4ccccc4)CC3)c(C#N)c2)cnn1-c1ccc(Cl)cc1
The melting point of the first is lower: 88 to 90 °C for the first, 186 to 188 °C for the second.

First: C=CCC(C(N)=O)C(N)=O
Second: CCOC(=O)c1sc2ccc(OC)cc2c1OCC
The melting point of the first is higher: 168 to 169 °C for the first, 42 to 43 °C for the second.

First: COC(=O)c1cc([N+](=O)[O-])c(Cl)c([N+](=O)[O-])c1
Second: Cc1ccc(CC2CCN(C(=O)CNc3ccc4[nH]c(=O)oc4c3)CC2)cc1
The melting point of the first is lower: 104 to 106 °C for the first, 212 to 215 °C for the second.

Compared with `CCCCCCCCOC(=O)c1ccc(OC(=O)c2ccc(C(=O)Oc3ccc(C(=O)OCCCCCCCC)cc3)cc2)cc1`, `c1ccc2cc3[nH]c(SCc4nccs4)nc3cc2c1` is higher in melting point: 108 to 110 °C for the first, 153 to 157 °C for the second.

Compound `Fc1ccc(-c2nc3ccc(N4CCC5(CCCNC5)CC4)nn3c2-c2ccnc3[nH]ccc23)cc1` has a melting point of 279 to 280 °C.
